Test results from PMC7247818, “Demonstration of Binding Induced Structural Plasticity in a SH2 Domain” (Frontiers in Molecular Biosciences, 2020).
Where a SMILES comes first, the peptide text is derived from it.

Assays:
Details in all cases: 10°C
[1] = target: T1, N-SH2 domain of PI3K, L51A variant (Homo sapiens, UniProt P27986, L372A); experiment: Stopped-flow binding kinetics, N-SH2 L51A
T1 construct: made in house
Method: (§1) N-SH2 wild-type and all the site-directed variants were expressed and purified as described previously ([Visconti et al., 2019]). All the mutants were obtained using a QuickChange Lightning Site-Directed Mutagenesis kit (Agilent technologies), accordingly to manufacturer instructions. Peptides with sequence TNSEDNpYVPMNPG mimicking wild-type Gab2 and TNSEDNpYVPANPG mimicking the M457A variant of Gab2 were purchased from GenScript Biotech Corporation.
(§2) Binding kinetics experiments were performed using a single-mixing SX-18 stopped-flow instrument (Applied Photophysics); all binding experiments were conducted in 50 mM Hepes pH 7.4 300 mM NaCl at 10°C. Excitation was at 280 nm and emission was collected using a […] cut-off glass filter. Pseudo-first order binding experiments were performed mixing a constant concentration of dansylated Gab2_448–460 and Gab2_448–460 M457A (1 μM) vs. N-SH2 wt and its mutants at concentrations ranging from […]. For each N-SH2 concentration, usually 5 individual traces were averaged and in all cases the fluorescence time courses obtained was satisfactorily fitted by using a single exponential equation.
(§3) One of the aims of this study is to depict the molecular details of the interaction between the N-SH2 domain of PI3K and Gab2. A powerful strategy to achieve this goal relies on perturbing the system by producing conservative site-directed variants while monitoring the effect of mutations on the association and dissociation rate constants between the interacting partners (kon and koff respectively). Thus, we designed and successfully produced 21 site-directed variants of the N-SH2 domain and challenged them vs. a peptide mimicking the region of Gab2 ranging from residue 448–460 (Gab2_448–460), containing the pY-X-X-M motif that is specifically recognized by the N-SH2 domain ([Waksman et al., 1992]; [Songyang et al., 1993]). The choise of mutations was designed in analogy to phi-value analysis methodology in protein folding studies ([Fersht and Sato, 2004]). […] To monitor binding by fluorescence, a dansyl group was added at the N-terminus of the peptide. The binding reaction was monitored by stopped-flow experiments following the change in FRET signal, taking advantage of the two Trp residues on the N-SH2 domain in positions 12 and 14 as fluorescence donor and the dansyl group on Gab2_448–460 as acceptor. The experiments were performed in pseudo-first order conditions with Gab2_448–460 at fixed concentration of 1 μM rapidly mixed vs. large excess of N-SH2 wt and its variants, ranging from 4 to 14 μM, in buffer Hepes 50 mM, NaCl 300 mM, pH 7.4, at 10°C.
(§4) with kon being the slope of the line and koff the intercept with the y-axis. Since indirect calculation of koff obtained by extrapolation is associated with high experimental error, we performed displacement experiments to directly measure koff by challenging a pre-incubated complex of dansylated Gab2_448–460 and N-SH2 domain both at the concentration of 1 μM vs. a large excess of non-dansylated Gab2_448–460 (50 μM). Kinetic parameters extracted from data together with the calculated changes in activation and equilibrium free energies are reported in Table 1. Analysis of kinetic data highlights that T48S, L51A, and L59A variations cause a detectable decrease of the affinity of the domain for Gab2_448–460 of ∼10-fold, affecting both the kon and koff. […] Since L99 residue is part of the binding pocket, this dramatic effect on the binding affinity is expected.
(§5) SH2 domains bind ligands with a phosphorylated tyrosine in their sequence. The N-SH2 domain of PI3K is known to recognize a specific consensus sequences that present a methionine in position +3 in respect to the phosphotyrosine (M457 in Gab2). […]

[2] = target: T2, N-SH2 domain of PI3K, V80A variant (Homo sapiens, UniProt P27986, V401A); experiment: Stopped-flow binding kinetics, N-SH2 V80A
T2 construct: made in house
T2 sequence (P27986 333-428 V401A): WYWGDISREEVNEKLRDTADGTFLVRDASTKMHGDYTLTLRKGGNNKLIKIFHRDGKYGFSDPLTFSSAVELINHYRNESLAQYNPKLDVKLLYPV
Method: as §1, §2, §3, §4, §5

[3] = target: T3, N-SH2 domain of PI3K, T50S variant (Homo sapiens, UniProt P27986, T371S); experiment: Stopped-flow binding kinetics, N-SH2 T50S
T3 construct: made in house
T3 sequence (P27986 333-428 T371S): as the sequence (P27986 333-428 V401A) above, with T39S, A69V counted along it
Method: as §1, §2, §3, §4, §5

[4] = target: T4, N-SH2 domain of PI3K, T29S variant (Homo sapiens, UniProt P27986, T350S); experiment: Stopped-flow binding kinetics, N-SH2 T29S
T4 construct: made in house
T4 sequence (P27986 333-428 T350S): as the sequence (P27986 333-428 V401A) above, with T18S, A69V counted along it
Method: as §1, §2, §3, §4, §5

[5] = target: T5, N-SH2 domain of PI3K, L75A variant (Homo sapiens, UniProt P27986, L396A); experiment: Stopped-flow binding kinetics, N-SH2 L75A
T5 construct: made in house
T5 sequence (P27986 333-428 L396A): as the sequence (P27986 333-428 V401A) above, with L64A, A69V counted along it
Method: as §1, §2, §3, §4, §5

[6] = target: T6, N-SH2 domain of PI3K, I60V variant (Homo sapiens, UniProt P27986, I381V); experiment: Stopped-flow binding kinetics, N-SH2 I60V
T6 construct: made in house
T6 sequence (P27986 333-428 I381V): as the sequence (P27986 333-428 V401A) above, with I49V, A69V counted along it
Method: as §1, §2, §3, §4, §5

[7] = target: T7, N-SH2 domain of PI3K, T76S variant (Homo sapiens, UniProt P27986, T397S); experiment: Stopped-flow binding kinetics, N-SH2 T76S
T7 construct: made in house
T7 sequence (P27986 333-428 T397S): as the sequence (P27986 333-428 V401A) above, with T65S, A69V counted along it
Method: as §1, §2, §3, §4, §5

[8] = target: T8, N-SH2 domain of PI3K, A30G variant (Homo sapiens, UniProt P27986, A351G); experiment: Stopped-flow binding kinetics, N-SH2 A30G
T8 construct: made in house
T8 sequence (P27986 333-428 A351G): as the sequence (P27986 333-428 V401A) above, with A19G, A69V counted along it
Method: as §1, §2, §3, §4, §5

[9] = target: T9, N-SH2 domain of PI3K, I62V variant (Homo sapiens, UniProt P27986, I383V); experiment: Stopped-flow binding kinetics, N-SH2 I62V
T9 construct: made in house
T9 sequence (P27986 333-428 I383V): as the sequence (P27986 333-428 V401A) above, with I51V, A69V counted along it
Method: as §1, §2, §3, §4, §5

[10] = target: T10, N-SH2 domain of PI3K, T33S variant (Homo sapiens, UniProt P27986, T354S); experiment: Stopped-flow binding kinetics, N-SH2 T33S
T10 construct: made in house
T10 sequence (P27986 333-428 T354S): as the sequence (P27986 333-428 V401A) above, with T22S, A69V counted along it
Method: as §1, §2, §3, §4, §5

[11] = target: T11, N-SH2 domain of PI3K, V101A variant (Homo sapiens, UniProt P27986, V422A); experiment: Stopped-flow binding kinetics, N-SH2 V101A
T11 construct: made in house
T11 sequence (P27986 333-428 V422A): as the sequence (P27986 333-428 V401A) above, with A69V, V90A counted along it
Method: as §1, §2, §3, §4, §5

[12] = target: T12, N-SH2 domain of PI3K, P74A variant (Homo sapiens, UniProt P27986, P395A); experiment: Stopped-flow binding kinetics, N-SH2 P74A
T12 construct: made in house
T12 sequence (P27986 333-428 P395A): as the sequence (P27986 333-428 V401A) above, with P63A, A69V counted along it
Method: as §1, §2, §3, §4, §5

[13] = target: T13, N-SH2 domain of PI3K, V22A variant (Homo sapiens, UniProt P27986, V343A); experiment: Stopped-flow binding kinetics, N-SH2 V22A
T13 construct: made in house
T13 sequence (P27986 333-428 V343A): as the sequence (P27986 333-428 V401A) above, with V11A, A69V counted along it
Method: as §1, §2, §3, §4, §5

[14] = target: T14, N-SH2 domain of PI3K, L104A variant (Homo sapiens, UniProt P27986, L425A); experiment: Stopped-flow binding kinetics, N-SH2 L104A
T14 construct: made in house
T14 sequence (P27986 333-428 L425A): as the sequence (P27986 333-428 V401A) above, with A69V, L93A counted along it
Method: as §1, §2, §3, §4, §5

[15] = target: T15, N-SH2 domain of PI3K, V81A variant (Homo sapiens, UniProt P27986, V402A); experiment: Stopped-flow binding kinetics, N-SH2 V81A
T15 construct: made in house
T15 sequence (P27986 333-428 V402A): as the sequence (P27986 333-428 V401A) above, with A69V, V70A counted along it
Method: as §1, §2, §3, §4, §5

[16] = target: T16, N-SH2 domain of PI3K, I17V variant (Homo sapiens, UniProt P27986, I338V); experiment: Stopped-flow binding kinetics, N-SH2 I17V
T16 construct: made in house
T16 sequence (P27986 333-428 I338V): as the sequence (P27986 333-428 V401A) above, with I6V, A69V counted along it
Method: as §1, §2, §3, §4, §5

N-SH2 domain of PI3K, WT = target: T17, N-SH2 domain of PI3K, WT (Homo sapiens, UniProt P27986); experiment: Stopped-flow binding kinetics, N-SH2 WT
T17 construct: made in house
T17 sequence (P27986 333-428 limits assumed): as the sequence (P27986 333-428 V401A) above, with A69V counted along it
Method: as §1, §2, §3, §4, §5

[17] = displacement experiment, pH 7.4, 300 mM NaCl
[18] = stopped-flow FRET, 1 μM dansylated peptide, 50 mM Hepes pH 7.4, 300 mM NaCl
[19] = stopped-flow kinetics, pH 7.4, 300 mM NaCl

T1 sequence (P27986 333-428 L372A): as the sequence (P27986 333-428 V401A) above, with L40A, A69V counted along it

Compound: CC(C)[C@H](NC(=O)[C@H](Cc1ccc(OP(=O)(O)O)cc1)NC(=O)[C@H](CC(N)=O)NC(=O)[C@H](CC(=O)O)NC(=O)[C@H](CCC(=O)O)NC(=O)[C@H](CO)NC(=O)[C@H](CC(N)=O)NC(=O)[C@@H](N)[C@@H](C)O)C(=O)N1CCC[C@H]1C(=O)N[C@@H](C)C(=O)N[C@@H](CC(N)=O)C(=O)N1CCC[C@H]1C(=O)NCC(=O)O [Gab2_448–460 M457A] (HELM PEPTIDE1{T.N.S.E.D.N.[O=C([C@H](Cc1ccc(OP(=O)(O)O)cc1)N[*:1])[*:2]].V.P.A.N.P.G}$$$$V2.0)
- koff [1, 17]: 160 ± 8 s⁻¹
- kon [1, 18]: 2.12e+07 ± 3.3e+06 M⁻¹ s⁻¹
- Kd [1, 19]: 7.6 ± 1.2 µM
- koff [2, 17]: 130 ± 6 s⁻¹
- kon [2, 18]: 2.23e+07 ± 5.4e+06 M⁻¹ s⁻¹
- Kd [2, 19]: 5.6 ± 1.4 µM
- koff [3, 17]: 140 ± 7 s⁻¹
- kon [3, 18]: 2.02e+07 ± 2e+06 M⁻¹ s⁻¹
- Kd [3, 19]: 6.8 ± 0.8 µM
- koff [4, 17]: 80 ± 4 s⁻¹
- kon [4, 18]: 1.97e+07 ± 2.7e+06 M⁻¹ s⁻¹
- Kd [4, 19]: 4 ± 0.6 µM
- koff [5, 17]: 110 ± 5 s⁻¹
- kon [5, 18]: 1.88e+07 ± 3.2e+06 M⁻¹ s⁻¹
- Kd [5, 19]: 5.7 ± 1 µM
- koff [6, 17]: 80 ± 4 s⁻¹
- kon [6, 18]: 1.52e+07 ± 1.5e+06 M⁻¹ s⁻¹
- Kd [6, 19]: 5 ± 0.6 µM
- koff [7, 17]: 100 ± 5 s⁻¹
- kon [7, 18]: 1.96e+07 ± 2.6e+06 M⁻¹ s⁻¹
- Kd [7, 19]: 5 ± 0.7 µM
- koff [8, 17]: 90 ± 4 s⁻¹
- kon [8, 18]: 1.71e+07 ± 2.2e+06 M⁻¹ s⁻¹
- Kd [8, 19]: 5.1 ± 0.7 µM
- koff [9, 17]: 120 ± 6 s⁻¹
- kon [9, 18]: 1.84e+07 ± 1.5e+06 M⁻¹ s⁻¹
- Kd [9, 19]: 6.7 ± 0.6 µM
- koff [10, 17]: 80 ± 4 s⁻¹
- kon [10, 18]: 2.06e+07 ± 2.9e+06 M⁻¹ s⁻¹
- Kd [10, 19]: 3.8 ± 0.6 µM
- koff [11, 17]: 170 ± 9 s⁻¹
- kon [11, 18]: 1.42e+07 ± 1.7e+06 M⁻¹ s⁻¹
- Kd [11, 19]: 12 ± 1 µM
- koff [12, 17]: 60 ± 3 s⁻¹
- kon [12, 18]: 2.25e+07 ± 1.9e+06 M⁻¹ s⁻¹
- Kd [12, 19]: 2.6 ± 0.3 µM
- koff [13, 17]: 170 ± 9 s⁻¹
- kon [13, 18]: 1.77e+07 ± 2.6e+06 M⁻¹ s⁻¹
- Kd [13, 19]: 9.7 ± 1.5 µM
- koff [14, 17]: 110 ± 6 s⁻¹
- kon [14, 18]: 2.21e+07 ± 1.4e+06 M⁻¹ s⁻¹
- Kd [14, 19]: 5.2 ± 0.4 µM
- koff [15, 17]: 90 ± 5 s⁻¹
- kon [15, 18]: 2.05e+07 ± 3.8e+06 M⁻¹ s⁻¹
- Kd [15, 19]: 4.5 ± 0.9 µM
- koff [16, 17]: 90 ± 5 s⁻¹
- kon [16, 18]: 2.2e+07 ± 2.3e+06 M⁻¹ s⁻¹
- Kd [16, 19]: 4.3 ± 0.5 µM
- koff (N-SH2 domain of PI3K, WT; displacement of 1 μM complex by 50 μM non-dansylated Gab2_448–460, 50 mM Hepes pH 7.4, 300 mM NaCl): 80 ± 4 s⁻¹
- Kd (N-SH2 domain of PI3K, WT; from stopped-flow kinetics, pH 7.4, 300 mM NaCl): 3.7 ± 0.4 µM
- kon (N-SH2 domain of PI3K, WT; stopped-flow FRET, 1 μM dansylated peptide vs excess N-SH2, 50 mM Hepes pH 7.4, 300 mM NaCl, slope of kobs): 2.15e+07 ± 2.4e+06 M⁻¹ s⁻¹
